# Data from US20060229433A1, “Modified antiviral peptides with increased activity and cell membrane affinity” (priority 2003, published 2006).
# pIC50: −log10 of the molar value. Where “and” joins values, the source holds several entries; their conditions need not be identical. Equal entries are not always repeated. Square brackets hold non-standard residues; d marks the D form. Peptide text beside a SMILES is read from it. Ava = NCCCCC(=O)O
# Legend:
# Assay type in all cases: cell-based
# HIV-1 NDK = experiment: HIV-1 infection of C8166 cells (syncytia formation, p24 ELISA) with HIV-1 NDK; design: key to syncitia formed, Day 4 / syncitia formed, Day 5 / syncitia formed, Day 6 / syncitia formed, Day 7: ++, +, (+), (+)− and − represent decreasing numbers of syncitia formed; ++, +, (+), (+)− and − represent decreasing numbers of syncitia formed; ++, +, (+), (+)− and − represent decreasing numbers of syncitia formed; ++, +, (+), (+)− and − represent decreasing numbers of syncitia formed; ++, +, (+), (+)− and − represent decreasing numbers of syncitia formed; settings: for P 24: P 24 after Day 7
# Protocol: HIV-1 NL 4-3 isolate (Adachi et al., 1986; Barré-Sinoussi et al., 1983) and highly cytopathic Zairian HIV-1 NDK isolate (Ellrodt et al., 1984) was propagated in permissive CEM cells (Nara et al., 1987). Uninfected CEM and C8166 (Salahuddin et al., 1983) were maintained in RPMI 1640 (R10) with ultraglutamine (cambrex, Vervier, Belgium), penicillin (100 U/ml), streptomycin (100 μg/ml), and 10% heat-inactivated fetal calf serum (Cambrex).
# Samples of 3×10^5/100 μL C8166 cells were preincubated in 96-well microtiter plates in culture medium containing various concentrations of peptide. After a 1 h treatment at 37° C., 100 μl of diluted viral solution of HIV-1 was added. The cells were exposed to the virus for 1 h at 37° C. at a multiplicity of infection of 1000 TCID50 per ml. The cells were washed three times and cultured at 3×10^5/ml of R10 with the treatment in 24-well plates incubated at 37° C. C8166 culture medium was replaced at Day-4 post-infection. The treatment was permanent before virus adsorption, during virus adsorption and after infection. Assays on C8166 cells have been performed at least twice and in duplicate. Toxicity was evaluated by daily cell count and trypan-blue exclusion assay. Infection of C8166 T-cells with HIV-1 was assessed by virus-induced cytopathic effects (syncytia formation) and by quantification of cell free p24 viral protein in the culture supernatants. Measurements of HIV-1 p24^gag concentration in the culture supernatants were achieved by ELISA (ALLIANCE® HIV-1 p24 kit, Perkin Elmer, life sciences, USA).
# HIV-1 NL 4-3 [1] = experiment: HIV-1 infection of C8166 cells (syncytia formation, p24 ELISA) with HIV-1 NL 4-3; design: key to syncitia formed, Day 4 / syncitia formed, Day 5 / syncitia formed, Day 6 / syncitia formed, Day 7: ++, +, (+), (+)− and − represent decreasing numbers of syncitia formed; ++, +, (+), (+)− and − represent decreasing numbers of syncitia formed; ++, +, (+), (+)− and − represent decreasing numbers of syncitia formed; ++, +, (+), (+)− and − represent decreasing numbers of syncitia formed; ++, +, (+), (+)− and − represent decreasing numbers of syncitia formed
# Outline: (§1)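 Infection was read out as syncytia and as cell-free p24 in supernatants (ELISA) from C8166 cells that received HIV-1 (1000 TCID50/ml, 1 h, 37 °C) after a 1 h peptide pretreatment. Peptide stayed on before, during and after adsorption. Toxicity was checked by daily trypan-blue counts.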
# HIV-1 NL 4-3 [2] = experiment: as above; design: key: ++, +, (+), (+)− and − represent decreasing numbers of syncitia formed; ++, +, (+), (+)− and − represent decreasing numbers of syncitia formed; ++, +, (+), (+)− and − represent decreasing numbers of syncitia formed; ++, +, (+), (+)− and − represent decreasing numbers of syncitia formed; ++, +, (+), (+)− and − represent decreasing numbers of syncitia formed; settings: Table 6
# Outline: as §1
compound,measurement,setting,value
"N=C(N)NCCC[C@H](NC(=O)CNC(=O)[C@@H]1CCCN1C(=O)CN)C(=O)NCCCCC(=O)O [GPGR valeric acid, GPGR-NHCH2CH2CH2CH2COOH] (H-GPGR[Ava]-OH; N-terminus assumed)","syncitia formed, Day 4",HIV-1 NDK; 0.005 μM,(+)
same,"syncitia formed, Day 5",HIV-1 NDK; 0.005 μM,+
same,"syncitia formed, Day 6",HIV-1 NDK; 0.005 μM,++
same,"syncitia formed, Day 7",HIV-1 NDK; 0.005 μM,++
same,P 24,HIV-1 NDK; 0.005 μM,23810 pg/mL
same,"syncitia formed, Day 4",HIV-1 NDK; 0.01 μM,(+)
same,"syncitia formed, Day 5",HIV-1 NDK; 0.01 μM,+
same,"syncitia formed, Day 6",HIV-1 NDK; 0.01 μM,++
same,"syncitia formed, Day 7",HIV-1 NDK; 0.01 μM,++
same,P 24,HIV-1 NDK; 0.01 μM,23810 pg/mL
same,"syncitia formed, Day 4",HIV-1 NDK; 0.05 μM,−
same,"syncitia formed, Day 5",HIV-1 NDK; 0.05 μM,(+)
same,"syncitia formed, Day 6",HIV-1 NDK; 0.05 μM,++
same,"syncitia formed, Day 7",HIV-1 NDK; 0.05 μM,++
same,P 24,HIV-1 NDK; 0.05 μM,23810 pg/mL
same,"syncitia formed, Day 4",HIV-1 NDK; 0.1 μM,−
same,"syncitia formed, Day 5",HIV-1 NDK; 0.1 μM,(+)
same,"syncitia formed, Day 6",HIV-1 NDK; 0.1 μM,++
same,"syncitia formed, Day 7",HIV-1 NDK; 0.1 μM,++
same,P 24,HIV-1 NDK; 0.1 μM,17890 pg/mL and 23810 pg/mL
same,"syncitia formed, Day 4",HIV-1 NDK; 0.5 μM,−
same,"syncitia formed, Day 5",HIV-1 NDK; 0.5 μM,−
same,"syncitia formed, Day 6",HIV-1 NDK; 0.5 μM,+
same,"syncitia formed, Day 7",HIV-1 NDK; 0.5 μM,++
same,"syncitia formed, Day 4",HIV-1 NDK; 1 μM,−
same,"syncitia formed, Day 5",HIV-1 NDK; 1 μM,−
same,"syncitia formed, Day 6",HIV-1 NDK; 1 μM,+
same,"syncitia formed, Day 7",HIV-1 NDK; 1 μM,++
same,P 24,HIV-1 NDK; 1 μM,2840 pg/mL and 3810 pg/mL
same,"syncitia formed, Day 4",HIV-1 NDK; 5 μM,−
same,"syncitia formed, Day 5",HIV-1 NDK; 5 μM,−
same,"syncitia formed, Day 6",HIV-1 NDK; 5 μM,(+)
same,"syncitia formed, Day 7",HIV-1 NDK; 5 μM,+
same,P 24,HIV-1 NDK; 5 μM,3810 pg/mL
same,pIC50,"HIV-1 NDK; HIV 1 NDK, Table 10",6.52
same,IC100,"HIV-1 NDK; HIV 1 NDK, Table 10",>5 µM
same,"syncitia formed, Day 4","HIV-1 NL 4-3 [1]; 0.01 μM, C8166 cells",−
same,"syncitia formed, Day 5","HIV-1 NL 4-3 [1]; 0.01 μM, C8166 cells",+
same,"syncitia formed, Day 6","HIV-1 NL 4-3 [1]; 0.01 μM, C8166 cells",++
same,"syncitia formed, Day 7","HIV-1 NL 4-3 [1]; 0.01 μM, Day 7, C8166 cells",++/T and ++
same,"syncitia formed, Day 4","HIV-1 NL 4-3 [1]; 0.05 μM, C8166 cells",−
same,"syncitia formed, Day 5","HIV-1 NL 4-3 [1]; 0.05 μM, C8166 cells",(+)
same,"syncitia formed, Day 6","HIV-1 NL 4-3 [1]; 0.05 μM, C8166 cells",+
same,"syncitia formed, Day 7","HIV-1 NL 4-3 [1]; 0.05 μM, Day 7, C8166 cells",++
same,P 24,"HIV-1 NL 4-3 [1]; 0.05 μM, P 24 after Day 7, C8166 cells",9860 pg/mL and 17800 pg/mL
same,"syncitia formed, Day 4","HIV-1 NL 4-3 [1]; 0.1 μM, C8166 cells",−
same,"syncitia formed, Day 5","HIV-1 NL 4-3 [1]; 0.1 μM, C8166 cells",(+)
same,"syncitia formed, Day 6","HIV-1 NL 4-3 [1]; 0.1 μM, C8166 cells",+
same,"syncitia formed, Day 7","HIV-1 NL 4-3 [1]; 0.1 μM, Day 7, C8166 cells",+
same,"syncitia formed, Day 4","HIV-1 NL 4-3 [1]; 0.5 μM, C8166 cells",−
same,"syncitia formed, Day 5","HIV-1 NL 4-3 [1]; 0.5 μM, C8166 cells",−
same,"syncitia formed, Day 6","HIV-1 NL 4-3 [1]; 0.5 μM, C8166 cells",−
same,"syncitia formed, Day 7","HIV-1 NL 4-3 [1]; 0.5 μM, Day 7, C8166 cells",+
same,P 24,"HIV-1 NL 4-3 [1]; 0.5 μM, P 24 after Day 7, C8166 cells",2740 pg/mL and 2840 pg/mL
same,"syncitia formed, Day 4","HIV-1 NL 4-3 [1]; 1 μM, C8166 cells",−
same,"syncitia formed, Day 5","HIV-1 NL 4-3 [1]; 1 μM, C8166 cells",−
same,"syncitia formed, Day 6","HIV-1 NL 4-3 [1]; 1 μM, C8166 cells",−
same,"syncitia formed, Day 7","HIV-1 NL 4-3 [1]; 1 μM, Day 7, C8166 cells",−
same,P 24,"HIV-1 NL 4-3 [1]; 1 μM, P 24 after Day 7, C8166 cells",53 pg/mL and 64 pg/mL
same,"syncitia formed, Day 4","HIV-1 NL 4-3 [1]; 5 μM, C8166 cells",−
same,"syncitia formed, Day 5","HIV-1 NL 4-3 [1]; 5 μM, C8166 cells",−
same,"syncitia formed, Day 6","HIV-1 NL 4-3 [1]; 5 μM, C8166 cells",−
same,"syncitia formed, Day 7","HIV-1 NL 4-3 [1]; 5 μM, Day 7, C8166 cells",−
same,P 24,"HIV-1 NL 4-3 [1]; 5 μM, P 24 after Day 7, C8166 cells",2 pg/mL
same,P 24,"HIV-1 NL 4-3 [1]; Day 7, 0.005 μM, Table 6",23810 pg/mL
same,P 24,"HIV-1 NL 4-3 [1]; Day 7, 0.01 μM, Table 6",21800 pg/mL and 23810 pg/mL
same,P 24,"HIV-1 NL 4-3 [1]; Day 7, 0.05 μM, Table 6",9840 pg/mL and 11830 pg/mL
same,P 24,"HIV-1 NL 4-3 [1]; Day 7, 0.1 μM, Table 6",433 pg/mL and 507 pg/mL
same,P 24,"HIV-1 NL 4-3 [1]; Day 7, 1 μM, Table 6",104 pg/mL and 179 pg/mL
same,P 24,"HIV-1 NL 4-3 [1]; Day 7, 5 μM, Table 6",2.36 pg/mL and 2.4 pg/mL
same,Day 4 syncitia formed,HIV-1 NL 4-3 [2]; 0.005 μM,−
same,Day 5 syncitia formed,HIV-1 NL 4-3 [2]; 0.005 μM,+
same,Day 6 syncitia formed,HIV-1 NL 4-3 [2]; 0.005 μM,++
same,Day 7 syncitia formed,HIV-1 NL 4-3 [2]; 0.005 μM,++
same,Day 4 syncitia formed,HIV-1 NL 4-3 [2]; 0.01 μM,−
same,Day 5 syncitia formed,HIV-1 NL 4-3 [2]; 0.01 μM,+
same,Day 6 syncitia formed,HIV-1 NL 4-3 [2]; 0.01 μM,++
same,Day 7 syncitia formed,HIV-1 NL 4-3 [2]; 0.01 μM,++
same,Day 4 syncitia formed,HIV-1 NL 4-3 [2]; 0.05 μM,−
same,Day 5 syncitia formed,HIV-1 NL 4-3 [2]; 0.05 μM,(+)
same,Day 6 syncitia formed,HIV-1 NL 4-3 [2]; 0.05 μM,+
same,Day 7 syncitia formed,HIV-1 NL 4-3 [2]; 0.05 μM,++
same,Day 4 syncitia formed,HIV-1 NL 4-3 [2]; 0.1 μM,−
same,Day 5 syncitia formed,HIV-1 NL 4-3 [2]; 0.1 μM,(+)
same,Day 6 syncitia formed,HIV-1 NL 4-3 [2]; 0.1 μM,+
same,Day 7 syncitia formed,HIV-1 NL 4-3 [2]; 0.1 μM,+
same,Day 4 syncitia formed,HIV-1 NL 4-3 [2]; 0.5 μM,−
same,Day 5 syncitia formed,HIV-1 NL 4-3 [2]; 0.5 μM,−
same,Day 6 syncitia formed,HIV-1 NL 4-3 [2]; 0.5 μM,−
same,Day 7 syncitia formed,HIV-1 NL 4-3 [2]; 0.5 μM,+
same,Day 4 syncitia formed,HIV-1 NL 4-3 [2]; 1 μM,−
same,Day 5 syncitia formed,HIV-1 NL 4-3 [2]; 1 μM,−
same,Day 6 syncitia formed,HIV-1 NL 4-3 [2]; 1 μM,−
same,Day 7 syncitia formed,HIV-1 NL 4-3 [2]; 1 μM,+
same,Day 4 syncitia formed,HIV-1 NL 4-3 [2]; 5 μM,−
same,Day 5 syncitia formed,HIV-1 NL 4-3 [2]; 5 μM,−
same,Day 6 syncitia formed,HIV-1 NL 4-3 [2]; 5 μM,−
same,Day 7 syncitia formed,HIV-1 NL 4-3 [2]; 5 μM,−
